According to PubChem BioAssay AID179 (DTP/NCI, 2004):
Where “and” joins values, the source holds several entries; their conditions need not be identical. Equal entries are not always repeated. Calls of active or inactive are those of the source.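 How the source made its calls: active means compounds giving half or more protection of infected cells from virus-caused growth loss, again on retest; inactive means the rest.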 Where a SMILES comes first, the peptide text is derived from it. The star is where a group is joined. Boc = CC(C)(C)OC(=O)*

Test system: CEM cells HIV-1 protection, formazan growth assay
Experiment: NCI AIDS Antiviral Assay
Settings: for IC50: measured here: growth of uninfected CEM cells
Outline: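 Steps: treat uninfected and HIV-1-infected human CEM cells at five drug levels; quantify growth by soluble formazan; retest any compound reaching 50% protection; classify actives from the retest.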

| Compound | EC50 | IC50 | outcome |
| --- | --- | --- | --- |
| N#CNC1=NCOCN1 | > 708 µM | > 708 µM |  |
| Cc1cn2cc(-c3cccs3)nc2s1 | > 200 µM | 87.1 µM |  |
| Cc1cc(O)ccc1C1(c2ccc(O)cc2C)OS(=O)(=O)c2ccccc21 |  |  | inactive |
| Nc1ccc(-c2ncc3cc(-c4cccc(-c5cc6cnc(-c7ccc(N)cc7)nc6c6ccccc56)c4)c4ccccc4c3n2)cc1 | > 200 µM | > 200 µM |  |
| O=C1c2ccccc2C(=O)N1N1CC1Br (configuration not stated) | > 200 µM | > 200 µM |  |
| N#CC(C(=O)/C(=N/NC(=O)c1ccccc1O)C(C#N)c1ccc(Br)cc1)c1ccc(Br)cc1 (configuration not stated) | > 23.4 µM | > 23.4 µM |  |
| Nc1ccc(Cl)c(-c2nc3ccccc3[nH]2)c1 | > 77.6 µM | > 77.6 µM |  |
| C[Si](C)(C)C#C/C(CO)=C(/C#C[Si](C)(C)C)CO | > 33.9 µM | > 33.9 µM |  |
| N#C/C(c1nc2ccccc2[nH]1)=c1\s/c(=C/c2ccc(Cl)cc2)c(=O)n1-c1ccccc1 | > 200 µM | 107 µM |  |
| N=C(N)CCNC(=O)c1c[nH]c2nc(N)[nH]c(=O)c12 | > 347 µM | > 347 µM |  |
| CC(=O)Oc1cc(/C=C(\C#N)C(=O)NCCCCCNC(=O)/C(C#N)=C/c2cc(OC(C)=O)c(OC(C)=O)c(OC(C)=O)c2)cc(OC(C)=O)c1OC(C)=O | > 200 µM | 27.5 µM |  |
| N#Cc1nc(Cc2cccs2)oc1N | > 200 µM | > 200 µM |  |
| CC(C)(CO)CNc1nc(N)nc(Cl)c1N | > 200 µM | > 200 µM |  |
| COc1cccc(OC)c1NC(=O)C(=O)Nn1c(NNC(=O)c2ccncc2)nc2ccccc2c1=O | > 501 µM | > 501 µM |  |
| COc1ccc(/C=N/Nc2nc(C)c(C)s2)cc1 | > 100 µM | > 100 µM |  |
| CC(=O)OCC1OC(Sc2nc(-c3ccc(C)cc3)c(C#N)c(=O)n2C2OC(COC(C)=O)C(OC(C)=O)C(OC(C)=O)C2OC(C)=O)C(OC(C)=O)C(OC(C)=O)C1OC(C)=O (configuration not stated) | > 100 µM and 69.2 µM | > 100 µM |  |
| COC(=O)C1=COC(O)C2CCCC12 (configuration not stated) | > 1260 µM | 107 µM |  |
| Cc1ccc(NC(=O)OCC(COc2ccc(Cl)cc2Cl)OC(=O)Nc2ccc(C)cc2)cc1 (configuration not stated) | > 2.88 µM | > 2.88 µM |  |
| CCOC(=O)/C(=C/c1ccc(N(C)C)cc1)C(=O)c1ccccc1 | > 8.51 µM | > 8.51 µM |  |
| O=C1/C(=C/c2ccccc2)CN(C(=O)C(F)(F)F)C/C1=C\c1ccccc1 |  |  | inactive |
| N=S(c1ccccc1[N+](=O)[O-])c1ccccc1[N+](=O)[O-] | > 200 µM | 0.631 µM and 0.589 µM |  |

| Compound | EC50 | IC50 | outcome |
| --- | --- | --- | --- |
| CC(=O)C(N=Nc1ncn[nH]1)C(C)=O | > 200 µM | 170 µM |  |
| O=C(COC(=O)c1cccc2c(=O)c3ccccc3[nH]c12)Nc1ccccc1 |  |  | inactive |
| C=CCN1C(=O)CSC1=S | > 288 µM | 13.5 µM |  |
| O=C(/C=C\c1ccc(Cl)cc1Cl)c1cccs1 | > 200 µM | 32.4 µM |  |
| COCOc1c(C(OCOC)c2cnc(Sc3ccccc3)n2C)ccc(OC)c1OC (configuration not stated) | > 200 µM | 110 µM |  |
| COc1ccc(C2SCC(=O)N2c2ccc(-c3ccc(-n4c(-c5ccccc5)nc5ccccc5c4=O)cc3)cc2)cc1 (configuration not stated) | > 200 µM | 33.9 µM |  |
| COC(=O)c1cc2c3c(c1)Oc1cc(C(=O)OC)cc4c1C3c1c(cc(C(=O)OC)cc1O4)O2 | > 200 µM | 55 µM |  |
| COCP1(=S)OC(C)CCN1C(C)C (configuration not stated) | > 200 µM | 112 µM |  |
| Cc1cccc(C)c1NC(=O)CCCC(=O)C1CCC/C1=N\NC(=O)C(=O)NN (configuration not stated) | > 64.6 µM | > 64.6 µM |  |
| O=c1cc2oc3cc(O)c(O)cc3c(-c3ccccc3O)c-2cc1O | > 200 µM | 115 µM |  |
| O=C(CCC[n+]1ccccc1)Sc1ccccc1C(=O)NCc1ccc2c(c1)OCO2 | > 16.6 µM | 3.39 µM |  |
| CCOC(=O)C1C(=O)CC(C)(O)C(C(=O)OCC)C1c1ccc(O)c(OC)c1 (configuration not stated) | > 200 µM | > 200 µM |  |
| COc1ccc(C(=O)c2ccccc2)c(O)c1 | > 200 µM | > 200 µM |  |
| NC(N)=NS(=O)(=O)c1ccc(Nc2c3ccccc3nc3c(C(=O)Nc4ccc(S(N)(=O)=O)cc4)ccc(Cl)c23)cc1 | > 41.7 µM | > 41.7 µM |  |
| CC(NC(=O)OCc1ccccc1)NC(=O)OC(C)(C)C (configuration not stated) | > 200 µM | 102 µM |  |
| Cc1ccc(S(=O)(=O)Nn2c(O)c(C#N)c(-c3ccccc3)c(C#N)c2=O)cc1 | > 200 µM | > 200 µM |  |
| Sc1ccc(Nc2c3ccccc3nc3ccccc23)cc1 | > 200 µM | 14.5 µM |  |
| [Cu+2].[Cu+2].[Cu+2].[Cu+2].[O-]CCN(CC[OH2+])CC[OH2+].[O-]CCN(CC[OH2+])CC[OH2+].[O-]CCN(CC[OH2+])CC[OH2+].[O-]CCN(CC[OH2+])CC[OH2+] | > 200 µM | 4.79 µM |  |
| c1ccc(-c2nn3c(-c4ccccc4)nnc3o2)cc1 | > 200 µM | 40.7 µM |  |
| O=C1CN(Cc2cccc(Cl)c2)CC(=O)N2Cc3ccccc3CN12 |  |  | inactive |
| CC(=O)OCC1OC(SC2=NC(=O)CS2)C(OC(C)=O)C(OC(C)=O)C1OC(C)=O (configuration not stated) | > 200 µM | 74.1 µM | inactive |

| Compound | EC50 | IC50 | outcome |
| --- | --- | --- | --- |
| N#CC1=C(S)N(C2OC(CO)C(O)C(O)C2O)C(c2ccccc2)=CC1c1ccco1 (configuration not stated) | > 200 µM | 42.7 µM |  |
| O=C1CCN(CCC(F)(F)C(F)(F)C(F)(F)C(F)(F)C(F)(F)C(F)(F)F)C(=S)N1CCC(F)(F)C(F)(F)C(F)(F)C(F)(F)C(F)(F)C(F)(F)F | > 16.6 µM | > 16.6 µM |  |
| CCOC(=O)/C(=N/Nc1ccc(C)cc1)N1C(=S)C=C(C)NN(C)C1=S | > 200 µM | > 200 µM |  |
| CC1CCC2C(C)C3C(CC4C5CC=C6CC(O)CCC6(C)C5CCC43COC(=O)c3ccccc3)N2C1 (configuration not stated) | > 69.2 µM | > 69.2 µM |  |
| Cc1ccc(S(=O)(=O)c2ccccc2)cc1 | > 155 µM | > 155 µM |  |
| CC(NC(=O)C(NC(=O)OC(C)(C)C)C(C)C)C(=O)NCC(=O)O (stereo not drawn) (Boc-Val-Ala-Gly-OH; configuration not given here) | > 200 µM | > 200 µM |  |
| O=C1C(Br)=C(c2ccccc2)C(c2ccccc2)=C1c1ccccc1 |  |  | inactive |
| CC(=O)O[C@@H]1CO[C@H]2O[C@H]3[C@@H](C(C=O)=C[C@H](O)[C@@H]4C5=C(C(C)C)CC[C@]5(C)CC[C@@]34C)[C@@]2(O)C1=O | > 0.575 µM | 0.0759 µM |  |
| COc1ccccc1NC(=O)C1=C(C)NC(C)=C(C(=O)Nc2ccccc2OC)C1c1ccc(C)cc1 | > 7.59 µM | > 7.59 µM |  |
| COc1c(C)c(C/C=C(\C)CC/C=C(\C)CC/C=C(\C)CCC=C(C)C)c(OC)c(OC)c1OC | > 200 µM | > 200 µM |  |
| NC(=O)NC(=O)c1cccs1 | > 200 µM | > 200 µM |  |
| CN(c1ccccc1)c1nc(=[N+]2CCCC2)ss1 |  |  | inactive |
| O=C(Nc1nn[nH]n1)c1nc(-c2ccccc2)cc(=O)[nH]1 | > 200 µM | > 200 µM |  |
| O=C(NNC(=S)Nc1ccccc1)c1csc(NC(=S)NC2CCCCC2)n1 | 6.92 µM | 7.41 µM |  |
| CC12CCC(=O)C[C@H]1CCC(OC=O)C2Br (some centres not stated) |  |  | inactive |
| COc1ccc2c(c1)OC[C@@H]1c3cc(O)c4c(OC)cccc4c3O[C@H]21 | > 100 µM | 44.7 µM |  |
| Nc1ncnc2c(C3OC(CO)C(O)C3O)nsc12 (configuration not stated) | > 200 µM |  |  |
| O=C(Cc1nc2ccccc2s1)Nc1cccc(C(F)(F)F)c1 | > 21.4 µM | 17.4 µM |  |
| O=C1CCCC1CN1CCCCC1 (configuration not stated) |  |  | inactive |
| O=c1cc(O)nc2nc(-c3ccccc3)c(-c3ccccc3)nn12 | > 81.3 µM | > 81.3 µM |  |
| O=C1/C(=C/c2ccco2)N=C2Sc3c(nc[nH]c3=O)N12 | > 200 µM | > 200 µM |  |

| Compound | EC50 | IC50 | outcome |
| --- | --- | --- | --- |
| CCOC(=O)C(=Cn1ccc(=O)[nH]c1=S)C(=O)OCC | > 200 µM | > 200 µM |  |
| O=[N+]([O-])c1cc(F)ccc1S(=O)(=O)c1ccccc1 | > 200 µM | 35.5 µM |  |
| Cc1ccccc1-n1c(C)nc(-c2ccccc2)cc1=O | > 26.3 µM | > 26.3 µM |  |
| COc1ccc(NC(=O)Oc2ccc3c(C)cc(=O)oc3c2)c(OC)c1 | > 52.5 µM | > 52.5 µM |  |
| CC(C)CCCC(C)[C@H]1CC[C@H]2[C@@H]3CC[C@H]4C[C@@H](CCC=C(c5cc(Cl)c(O)c(C(=O)OC(C)(C)C)c5)c5cc(Cl)c(O)c(C(=O)OC(C)(C)C)c5)CC[C@]4(C)[C@H]3CC[C@]12C (some centres not stated) | > 50.1 µM | > 50.1 µM |  |
| COc1ccc(C2CC(c3c(C)nn(-c4ccccc4)c3-c3ccc(C)cc3O)=NN2c2ccccc2)cc1 (configuration not stated) | > 200 µM | 12.9 µM |  |
| Nc1nccc2c1ncn2C1C=C(CO)C(O)C1O (configuration not stated) | > 832 µM | 0.324 µM |  |
| CCOC(=O)c1cc(-c2ccc(OC)cc2)c([N+](=O)[O-])[nH]1 | > 200 µM | 25.7 µM |  |
| CC(=O)OCC1OC(n2c(N)c(C#N)c(-c3ccccc3)c(C#N)c2=S)C(OC(C)=O)C(OC(C)=O)C1OC(C)=O (configuration not stated) | > 200 µM | > 200 µM |  |
| CC1=C(C)[C@]2(C)C(C)[C@]13Cn1c(=O)n(-c4ccccc4)c(=O)n1[C@@]32C (some centres not stated) | > 77.6 µM | 51.3 µM |  |
| COC(=O)c1c2c(cc3nc4ccccc4nc13)OCO2 | > 200 µM | > 200 µM |  |
| O=C1OC(CCCN2CCCCC2)(c2ccccc2)CC12CCCC2 (configuration not stated) | > 200 µM | 191 µM |  |
| Cc1[nH]c2ncnc(N)c2c1Cc1ccccc1 | > 200 µM | 2.63 µM |  |
| CCO[C@H]1CC(C)C2[C@H](CC3(C)C4CC(OC(C)=O)C5C(C)(C)[C@@H](OC6OCC(O)C(O)C6O)CC[C@@]56C[C@@]46CC[C@]23C)O1 (some centres not stated) | > 41.7 µM | > 41.7 µM |  |
| CC(/C=C/c1ccccc1Cl)=N\C(=S)NC(N)=S | > 200 µM | 20.9 µM |  |
| COc1ccc(C(c2ccc3c(c2)OCO3)N2C(=O)CCC2C(=O)O)cc1 (configuration not stated) | > 200 µM | > 200 µM |  |
| O=C(O)c1ccc2cc(O)ccc2c1 | > 200 µM | > 200 µM |  |
| N#CC(/C(=N/NC(=O)C(=O)NN)C(=O)NC12CC3CC(CC(C3)C1)C2)c1ccccc1 (configuration not stated) | > 155 µM | > 155 µM |  |
| O=C(N/N=C/c1cccc(O)c1O)N/N=C/c1cccc(O)c1O | > 200 µM | 6.76 µM |  |
| CO[C@H]1ON=C(c2c(C)cc(C)cc2C)[C@@H]1C1(c2ccccc2)ON=C(c2c(C)cc(C)cc2C)O1 (some centres not stated) | > 200 µM |  |  |
